Data as given in PubChem BioAssay (NCI).
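In this assay, cells in 96-well plates receive the compound at five concentrations for 48 hours. Endpoints are linearly interpolated between the surrounding concentrations. The concentration for full growth arrest is given as TGI.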

Legend:
Experiment in all cases: DTP human tumour cell line panel, 48 h
[1] = tested on: SK-MEL-28 melanoma
[2] = tested on: SN12C renal
[3] = tested on: ACHN renal
[4] = tested on: UACC-62 melanoma
[5] = tested on: HS 578T breast
[6] = tested on: HOP-62 NSCLC
[7] = tested on: EKVX NSCLC
[8] = tested on: K-562 leukemia
[9] = tested on: KM12 colon
[10] = tested on: SNB-75 CNS
[11] = tested on: 786-0 renal
[12] = tested on: M14 melanoma
[13] = tested on: RPMI-8226 leukemia
[14] = tested on: RXF 393 renal
[15] = tested on: SK-MEL-2 melanoma
[16] = tested on: OVCAR-3 ovarian
[17] = tested on: CCRF-CEM leukemia
[18] = tested on: SK-OV-3 ovarian
[19] = tested on: SF-295 CNS
[20] = tested on: HCT-15 colon
[21] = tested on: NCI-H522 lung
[22] = tested on: MCF7 breast
[23] = tested on: SW-620 colon
[24] = tested on: BT-549 breast
[25] = tested on: MALME-3M melanoma
[26] = tested on: HL-60(TB) leukemia
[27] = tested on: MDA-MB-435
[28] = tested on: MDA-N
[29] = tested on: PC-3 prostate
[30] = tested on: A498 renal
[31] = tested on: OVCAR-8 ovarian
[32] = tested on: LOX IMVI melanoma
[33] = tested on: HT29 colon
[34] = tested on: NCI-H23 lung
[35] = tested on: HCT-116 colon
[36] = tested on: OVCAR-4 ovarian
[37] = tested on: U251 CNS
[38] = tested on: A549 NSCLC
[39] = tested on: SNB-19 CNS
[40] = tested on: NCI/ADR-RES ovarian
[41] = tested on: T-47D breast
[42] = tested on: COLO 205 colon
[43] = tested on: IGROV1 ovarian
[44] = tested on: UO-31 renal
[45] = tested on: NCI-H226 lung
[46] = tested on: MDA-MB-231 breast
[47] = tested on: HOP-92 NSCLC
[48] = tested on: CAKI-1 renal
[49] = tested on: SK-MEL-5 melanoma
[50] = tested on: MOLT-4 leukemia
[51] = tested on: SF-268 CNS
[52] = tested on: DU-145 prostate
[53] = tested on: OVCAR-5 ovarian
[54] = tested on: TK-10 renal
[55] = tested on: HCC-2998 colon
[56] = tested on: NCI-H460 lung
[57] = tested on: SF-539 CNS
[58] = tested on: UACC-257 melanoma

Clc1ccc2c(NCCNC3CCCCC3)ccnc2c1
TGI [1]: 3.62 µM
TGI [2]: 33.8 µM
TGI [3]: 25.3 µM
TGI [4]: 15.8 µM
TGI [5]: 8.15 µM
TGI [6]: 27.4 µM
TGI [7]: 15.7 µM
TGI [8]: 6.13 µM
TGI [9]: 31 µM
TGI [10]: 23.4 µM
TGI [11]: 20.9 µM
TGI [12]: 3.41 µM
TGI [13]: 17 µM
TGI [14]: 27.1 µM
TGI [15]: 11 µM
TGI [16]: 37.5 µM
TGI [17]: 9.77 µM
TGI [18]: 37.8 µM
TGI [19]: 10.3 µM
TGI [20]: 20.4 µM
TGI [21]: 7.46 µM
TGI [22]: 15.9 µM
TGI [23]: 29.7 µM
TGI [24]: 23.3 µM
TGI [25]: 3.64 µM
TGI [26]: 6.63 µM
TGI [27]: 9.92 µM
TGI [28]: 5.42 µM
TGI [29]: 33.9 µM
TGI [30]: 5.85 µM
TGI [31]: 31.9 µM
TGI [32]: 8.53 µM
TGI [33]: 14.8 µM
TGI [34]: 32.2 µM
TGI [35]: 21.1 µM
TGI [36]: 46.5 µM
TGI [37]: 17.7 µM
TGI [38]: 31.2 µM
TGI [39]: 35.5 µM
TGI [40]: 33.7 µM
TGI [41]: 64.6 µM
TGI [42]: 2.79 µM
TGI [43]: 27.8 µM
TGI [44]: 11.2 µM
TGI [45]: 24.8 µM
TGI [46]: 23.8 µM
TGI [47]: 22.5 µM
TGI [48]: 24.3 µM
TGI [49]: 3.16 µM
TGI [50]: 18.6 µM
TGI [51]: 22.8 µM
TGI [52]: 36.7 µM
TGI [53]: 30.5 µM
TGI [54]: 7.15 µM

Cn1c(=O)c2ccccc2c2ccccc21
TGI [1]: > 100 µM
TGI [2]: > 100 µM
TGI [3]: > 100 µM
TGI [4]: > 100 µM
TGI [5]: > 100 µM
TGI [6]: > 100 µM
TGI [7]: 63.1 µM
TGI [9]: > 100 µM
TGI [10]: > 100 µM
TGI [11]: > 100 µM
TGI [12]: > 100 µM
TGI [13]: > 100 µM
TGI [14]: > 100 µM
TGI [15]: > 100 µM
TGI [55]: > 100 µM
TGI [16]: > 100 µM
TGI [17]: > 100 µM
TGI [18]: 94.1 µM
TGI [19]: > 100 µM
TGI [20]: > 100 µM
TGI [21]: > 100 µM
TGI [22]: > 100 µM
TGI [23]: > 100 µM
TGI [24]: > 100 µM
TGI [56]: > 100 µM
TGI [25]: > 100 µM
TGI [57]: > 100 µM
TGI [27]: > 100 µM
TGI [28]: > 100 µM
TGI [29]: > 100 µM
TGI [30]: 93.8 µM
TGI [31]: > 100 µM
TGI [32]: > 100 µM
TGI [33]: > 100 µM
TGI [34]: > 100 µM
TGI [35]: > 100 µM
TGI [36]: > 100 µM
TGI [37]: > 100 µM
TGI [38]: > 100 µM
TGI [39]: > 100 µM
TGI [40]: > 100 µM
TGI [41]: > 100 µM
TGI [42]: > 100 µM
TGI [44]: > 100 µM
TGI [45]: > 100 µM
TGI [46]: > 100 µM
TGI [47]: > 100 µM
TGI [58]: > 100 µM
TGI [48]: 89.8 µM
TGI [49]: 95.7 µM
TGI [51]: > 100 µM
TGI [52]: > 100 µM
TGI [54]: > 100 µM

Cc1cc2nc(N3C(=O)/C(=C/c4ccc(Oc5ccccc5)cc4)N=C3c3ccccc3)sc2cc1C
TGI [1]: > 100 µM
TGI [2]: > 100 µM
TGI [3]: > 100 µM
TGI [4]: > 100 µM
TGI [5]: > 100 µM
TGI [6]: > 100 µM
TGI [7]: > 100 µM
TGI [8]: > 100 µM
TGI [9]: > 100 µM
TGI [10]: > 100 µM
TGI [11]: > 100 µM
TGI [12]: > 100 µM
TGI [13]: 86.8 µM
TGI [14]: > 100 µM
TGI [15]: 71.6 µM
TGI [55]: > 100 µM
TGI [16]: > 100 µM
TGI [17]: > 100 µM
TGI [18]: > 100 µM
TGI [19]: > 100 µM
TGI [20]: > 100 µM
TGI [21]: 80.5 µM
TGI [22]: > 100 µM
TGI [23]: > 100 µM
TGI [24]: > 100 µM
TGI [56]: > 100 µM
TGI [25]: > 100 µM
TGI [26]: 63.8 µM
TGI [27]: 83.4 µM
TGI [28]: > 100 µM
TGI [29]: > 100 µM
TGI [30]: > 100 µM
TGI [31]: > 100 µM
TGI [32]: > 100 µM
TGI [33]: > 100 µM
TGI [34]: > 100 µM
TGI [35]: > 100 µM
TGI [36]: > 100 µM
TGI [37]: > 100 µM
TGI [38]: > 100 µM
TGI [39]: > 100 µM
TGI [40]: 91.6 µM
TGI [41]: > 100 µM
TGI [42]: 47.6 µM
TGI [43]: > 100 µM
TGI [44]: > 100 µM
TGI [46]: > 100 µM
TGI [47]: > 100 µM
TGI [58]: > 100 µM
TGI [48]: > 100 µM
TGI [49]: > 100 µM
TGI [50]: > 100 µM
TGI [51]: > 100 µM
TGI [52]: > 100 µM
TGI [53]: > 100 µM
TGI [54]: > 100 µM
